One experiment has as its system B9 (HRAS Q61L) cell line. In words: B9 P-ERK cell activation assay (AlphaScreen). The class given is cell-based, mouse. Particulars: Mus musculus, P-ERK cell activation, B9, read-out: Cell activity (EC50 μM) B9_pERK. The method, boiled down:
(§1)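 Mouse B9 (HRAS-driven skin SCC) or human IPC-298 melanoma cells treated with an 8-point compound titration for one hour at 37° C., then lysed. ERK1/2 phosphorylation at Thr202/Tyr204 read by AlphaScreen with total-ERK and phospho-ERK antibodies.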

The target of a further experiment is T1, BRAF V600E (Homo sapiens, UniProt P15056, V600E).
T1 construct: purchased Upstate Biotechnology
T1 sequence (P15056 whole entry V600E): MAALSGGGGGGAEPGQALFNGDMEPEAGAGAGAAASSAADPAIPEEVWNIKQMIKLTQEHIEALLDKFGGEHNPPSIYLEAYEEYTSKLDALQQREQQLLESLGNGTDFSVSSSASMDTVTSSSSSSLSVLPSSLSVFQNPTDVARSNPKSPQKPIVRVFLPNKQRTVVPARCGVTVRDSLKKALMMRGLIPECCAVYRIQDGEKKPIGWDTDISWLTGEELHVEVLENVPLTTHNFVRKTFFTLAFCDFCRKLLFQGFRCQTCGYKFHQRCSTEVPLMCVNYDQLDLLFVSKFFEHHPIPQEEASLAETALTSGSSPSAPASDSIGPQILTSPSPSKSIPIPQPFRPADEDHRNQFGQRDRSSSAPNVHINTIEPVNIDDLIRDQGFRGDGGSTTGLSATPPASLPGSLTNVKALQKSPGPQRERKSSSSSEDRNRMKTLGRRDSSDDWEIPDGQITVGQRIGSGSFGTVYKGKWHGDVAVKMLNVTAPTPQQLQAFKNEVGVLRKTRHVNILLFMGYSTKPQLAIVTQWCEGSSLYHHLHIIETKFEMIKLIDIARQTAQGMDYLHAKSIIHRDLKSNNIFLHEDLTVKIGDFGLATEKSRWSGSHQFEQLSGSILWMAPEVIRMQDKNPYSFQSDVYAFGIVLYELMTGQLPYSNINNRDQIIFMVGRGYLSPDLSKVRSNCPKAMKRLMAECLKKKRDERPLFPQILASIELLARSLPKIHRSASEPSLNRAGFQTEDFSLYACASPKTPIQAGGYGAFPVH
In words: BRAF V600E biochemical kinase activity assay (AlphaScreen, biotin-MEK1 substrate). Conditions: BRAF V600E biochemical inhibitory activity.

Experiment [1] has as its system A375 (BRAF V600E) cell line. In words: A375 P-ERK inhibition assay (AlphaScreen). Conditions: Homo sapiens, A-375; A375_P-ERK. The experiment is classed as cell-based, human. The method, boiled down: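 A375 cells treated with 8-point compound titration for 1 h at 37° C, then lysed. ERK1/2 Thr202/Tyr204 phosphorylation measured by AlphaScreen, using biotinylated total-ERK antibody on donor beads and phospho-specific antibody on acceptor beads.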

Experiment [2] relates to IPC-298 (NRAS Q61L) cell line. Put plainly: IPC-298 P-ERK cell activation assay (AlphaScreen). The class given is cell-based, human. Conditions: Homo sapiens; P-ERK cell activation, IPC-298; numeric bounds; read-out: Cell activity (EC50 μM) IPC-298_P-ERK. The method in brief: as §1
(In general: In Alpha technology, singlet oxygen from a donor bead excites a nearby acceptor bead.)

Read-outs that look alike come from different tables or passages of the source.

This passage reports EC50 and IC50 results from patent US10421761B2, “Compounds for kinase modulation, and indications therefor” (Plexxikon Inc., priority 2013, dated 2019).

One may read the EC50 as the concentration that produces a half-maximal response. What is called IC50 is the concentration at which inhibition is half-maximal. A higher IC50 goes with weaker potency in that assay. For the molecule `N#Cc1ccnc2[nH]cc(C(=O)c3c(F)ccc(NS(=O)(=O)N4CCCC4)c3F)c12` [P-2019, N-[3-(4-cyano-1H-pyrrolo[2,3-b]pyridine-3-carbonyl)-2,4-difluoro-phenyl]pyrrolidine-1-sulfonamide], the EC50 (with B9 (HRAS Q61L) cell line (numeric bounds); in experiment [2]) was greater than 10 µM in each case. Moreover, the IC50 (against BRAF V600E; in experiment [1]) was 0.0001 to 1 µM in each case.
With `CCC(C)S(=O)(=O)Nc1ccc(F)c(C(=O)c2c[nH]c3nccc(OC)c23)c1F` (stereo not drawn) [Compound P-2006, N-[2,4-difluoro-3-(4-methoxy-1H-pyrrolo[2,3-b]pyridine-3-carbonyl)phenyl]butane-2-sulfonamide], the half-maximal effective concentration (EC50) (in the experiment with B9 (HRAS Q61L) cell line (numeric bounds); in experiment [2]) was greater than 10 µM throughout. The half-inhibitory concentration (IC50) (against BRAF V600E; in experiment [1]) was 0.0001 to 1 µM in each case.
For `CC(C)Nc1ncnc2[nH]cc(C(=O)c3c(F)ccc(NS(=O)(=O)N(C)C)c3F)c12` [P-2045, 5-[3-(dimethylsulfamoylamino)-2,6-difluoro-benzoyl]-4-(isopropylamino)-7H-pyrrolo[2,3-d]pyrimidine], the 50% effective concentration (EC50) (in the experiment with B9 (HRAS Q61L) cell line (numeric bounds); in experiment [2]) was greater than 10 µM in each case. Besides, the half-inhibitory concentration (IC50) (at BRAF V600E; in experiment [1]) was 0.0001 to 1 µM in each case.
As to `O=C(c1c(F)ccc(NS(=O)(=O)N2CCCC2)c1F)c1c[nH]c2nccc(Cl)c12` [P-2025, N-[3-(4-chloro-1H-pyrrolo[2,3-b]pyridine-3-carbonyl)-2,4-difluoro-phenyl]pyrrolidine-1-sulfonamide], the EC50 (in the experiment with B9 (HRAS Q61L) cell line (numeric bounds); in experiment [2]) was greater than 10 µM each time. The concentration for half-maximal inhibition (IC50) (on BRAF V600E; in experiment [1]) was 0.0001 to 1 µM throughout.
With `O=C(c1cc(F)cc(NS(=O)(=O)N2CCCC2)c1F)c1c[nH]c2ncc(-c3cnc(C4CC4)nc3)cc12` [P-2171, N-[3-[5-(2-cyclopropylpyrimidin-5-yl)-1H-pyrrolo[2,3-b]pyridine-3-carbonyl]-2,5-difluoro-phenyl]pyrrolidine-1-sulfonamide], the EC50 with B9 (HRAS Q61L) cell line (numeric bounds) is greater than 10 µM; in experiment [2], greater than 1 µM. Further, the IC50 (against BRAF V600E; in experiment [1]) was 0.0001 to 1 µM throughout.
Turning to `[2H]C1([2H])CCC([2H])([2H])N1S(=O)(=O)Nc1cc(Cl)cc(C(=O)c2c[nH]c3ncc(-c4cnc(C5CC5)nc4)cc23)c1F` [P-2176, N-[5-chloro-3-[5-(2-cyclopropylpyrimidin-5-yl)-1H-pyrrolo[2,3-b]pyridine-3-carbonyl]-2-fluoro-phenyl]-2,2,5,5-tetradeuterio-pyrrolidine-1-sulfonamide], the half-maximal effective concentration (EC50) (in the experiment with B9 (HRAS Q61L) cell line (numeric bounds); in experiment [2]) was greater than 10 µM throughout. Further, the IC50 (against BRAF V600E; in experiment [1]) was 0.0001 to 1 µM in each case.
Turning to `Cc1nc2c(-c3sc(C(C)(C)C)nc3-c3cccc(NS(=O)(=O)N4CCCC4)c3F)ncnc2[nH]1` [P-2124, N-[3-[2-tert-butyl-5-(8-methyl-9H-purin-6-yl)thiazol-4-yl]-2-fluoro-phenyl]pyrrolidine-1-sulfonamide], the half-maximal effective concentration (EC50) with B9 (HRAS Q61L) cell line (numeric bounds) was greater than 10 µM; in experiment [2] it was greater than 1 µM. For the same molecule, the half-inhibitory concentration (IC50) (at BRAF V600E; in experiment [1]) was 0.0001 to 1 µM in each case.
Turning to `CCC(C)S(=O)(=O)Nc1ccc(F)c(C(=O)c2c[nH]c3nccc(Cl)c23)c1F` (stereo not drawn) [P-2016, N-[3-(4-chloro-1H-pyrrolo[2,3-b]pyridine-3-carbonyl)-2,4-difluoro-phenyl]butane-2-sulfonamide], the EC50 (in the experiment with B9 (HRAS Q61L) cell line (numeric bounds); in experiment [2]) was greater than 10 µM throughout. Further, the concentration for half-maximal inhibition (IC50) (on BRAF V600E; in experiment [1]) was 0.0001 to 1 µM each time.
As for `CCCNc1ncnc2[nH]cc(C(=O)c3c(F)ccc(NS(=O)(=O)N(C)CC)c3F)c12` [P-2099, 5-[3-[[ethyl(methyl)sulfamoyl]amino]-2,6-difluoro-benzoyl]-4-(propylamino)-7H-pyrrolo[2,3-d]pyrimidine], the concentration giving a half-maximal response (EC50) (with B9 (HRAS Q61L) cell line (numeric bounds); in experiment [2]) was greater than 10 µM each time. Moreover, the IC50 (at BRAF V600E; in experiment [1]) was 0.0001 to 1 µM in each case.
Regarding `COCCCNc1ncnc2[nH]cc(C(=O)c3cccc(NS(=O)(=O)N4CCCC4)c3F)c12` [P-2105, N-[2-fluoro-3-[4-(3-methoxypropylamino)-7H-pyrrolo[2,3-d]pyrimidine-5-carbonyl]phenyl]pyrrolidine-1-sulfonamide], the EC50 (in the experiment with B9 (HRAS Q61L) cell line (numeric bounds); in experiment [2]) was greater than 10 µM in each case. The IC50 (on BRAF V600E; in experiment [1]) was 0.0001 to 1 µM throughout.
In the case of `COC(=O)N[C@@H](C)CNc1nccc(-c2nn(C(C)C)cc2-c2cc(Cl)cc(NS(=O)(=O)N(C)C)c2F)n1` [P-2166, methyl N-[(1S)-2-[[4-[4-[5-chloro-3-(dimethylsulfamoylamino)-2-fluoro-phenyl]-1-isopropyl-pyrazol-3-yl]pyrimidin-2-yl]amino]-1-methyl-ethyl]carbamate], the EC50 was 0.0001 to 1 µM with B9 (HRAS Q61L) cell line (class symbols) and greater than 10 µM in experiment [2]. Further, the concentration for half-maximal inhibition (IC50) (at BRAF V600E; in experiment [1]) was 0.0001 to 1 µM each time.
As to `O=C(c1cccc(NS(=O)(=O)N2CCCC2)c1F)c1c[nH]c2ncnc(NC3(C(=O)O)CC3)c12` [P-2097, 1-[[5-[2-fluoro-3-(pyrrolidin-1-ylsulfonylamino)benzoyl]-7H-pyrrolo[2,3-d]pyrimidin-4-yl]amino]cyclopropanecarboxylic acid], the EC50 (with B9 (HRAS Q61L) cell line (numeric bounds); in experiment [2]) was greater than 10 µM in each case. The half-inhibitory concentration (IC50) against BRAF V600E is 1 to 10 µM; in experiment [1] it was greater than 10 µM.
For the molecule `O=C(c1cc(Cl)cc(NS(=O)(=O)N2CCCC2)c1F)c1c[nH]c2ncc(-c3cnc(C4CC4)nc3)cc12` [P-2180, N-(5-chloro-3-(5-(2-cyclopropylpyrimidin-5-yl)-1H-pyrrolo[2,3-b]pyridine-3-carbonyl)-2-fluorophenyl)pyrrolidine-1-sulfonamide], the EC50 (with B9 (HRAS Q61L) cell line (numeric bounds); in experiment [2]) was greater than 10 µM each time. Also, the IC50 is 0.0001 to 1 µM against BRAF V600E and less than 1 µM in experiment [1].
As to `CCN(C)S(=O)(=O)Nc1ccc(F)c(C(=O)c2c[nH]c3ncnc(NC4CCOCC4)c23)c1F` [P-2119, 5-[3-[[ethyl(methyl)sulfamoyl]amino]-2,6-difluoro-benzoyl]-4-(tetrahydropyran-4-ylamino)-7H-pyrrolo[2,3-d]pyrimidine], the concentration for a half-maximal effect (EC50) (with B9 (HRAS Q61L) cell line (numeric bounds); in experiment [2]) was greater than 10 µM each time. Moreover, the IC50 (against BRAF V600E; in experiment [1]) was 0.0001 to 1 µM in each case.
`CCN(C)S(=O)(=O)Nc1cccc(C(=O)c2c[nH]c3ncnc(NC)c23)c1F` [P-2062, 5-[3-[[ethyl(methyl)sulfamoyl]amino]-2-fluoro-benzoyl]-4-(methylamino)-7H-pyrrolo[2,3-d]pyrimidine]: the EC50 (with B9 (HRAS Q61L) cell line (numeric bounds); in experiment [2]) was greater than 10 µM in each case. In addition, the concentration for half-maximal inhibition (IC50) (at BRAF V600E; in experiment [1]) was 0.0001 to 1 µM each time.
Turning to `CCN(CC)S(=O)(=O)Nc1cc(Cl)cc(-c2cn(C(C)C)nc2-c2ccnc(NC[C@H](C)NC(=O)OC)n2)c1F` [P-2165, methyl N-[(1S)-2-[[4-[4-[5-chloro-3-(diethylsulfamoylamino)-2-fluoro-phenyl]-1-isopropyl-pyrazol-3-yl]pyrimidin-2-yl]amino]-1-methyl-ethyl]carbamate], the 50% effective concentration (EC50) (with B9 (HRAS Q61L) cell line (numeric bounds); in experiment [2]) was greater than 10 µM in each case. In addition, the IC50 (against BRAF V600E; in experiment [1]) was 0.0001 to 1 µM each time.
As to `CCN(C)S(=O)(=O)Nc1cccc(C(=O)c2c[nH]c3ncnc(NC4CCC(F)(F)CC4)c23)c1F` [P-2068, 4-[(4,4-difluorocyclohexyl)amino]-5-[3-[[ethyl(methyl)sulfamoyl]amino]-2-fluoro-benzoyl]-7H-pyrrolo[2,3-d]pyrimidine], the EC50 (with B9 (HRAS Q61L) cell line (numeric bounds); in experiment [2]) was greater than 10 µM each time. Moreover, the IC50 (at BRAF V600E; in experiment [1]) was 0.0001 to 1 µM in each case.
For `CCN(C)S(=O)(=O)Nc1ccc(F)c(C(=O)c2c[nH]c3ncnc(NCC4CC4)c23)c1F` [P-2061, 4-(cyclopropylmethylamino)-5-[3-[[ethyl(methyl)sulfamoyl]amino]-2,6-difluoro-benzoyl]-7H-pyrrolo[2,3-d]pyrimidine], the concentration giving a half-maximal response (EC50) (with B9 (HRAS Q61L) cell line (numeric bounds); in experiment [2]) was greater than 10 µM each time. The concentration for half-maximal inhibition (IC50) (against BRAF V600E; in experiment [1]) was 0.0001 to 1 µM throughout.
`CCN(C)S(=O)(=O)Nc1ccc(F)c(C(=O)c2c[nH]c3ncnc(NCCOC)c23)c1F` [P-2100, 5-[3-[[ethyl(methyl)sulfamoyl]amino]-2,6-difluoro-benzoyl]-4-(2-methoxyethylamino)-7H-pyrrolo[2,3-d]pyrimidine]: the EC50 (in the experiment on B9 (HRAS Q61L) cell line (numeric bounds); in experiment [2]) was greater than 10 µM each time. Besides, the 50% inhibitory concentration (IC50) (at BRAF V600E; in experiment [1]) was 0.0001 to 1 µM in each case.
For `CCN(C)S(=O)(=O)Nc1cccc(-c2nc(C(C)(C)C)sc2-c2ccnc(N)n2)c1F` [P-2089, 5-(2-aminopyrimidin-4-yl)-2-tert-butyl-4-[3-[[ethyl(methyl)sulfamoyl]amino]-2-fluoro-phenyl]thiazole], the 50% effective concentration (EC50) (in the experiment on B9 (HRAS Q61L) cell line (numeric bounds); in experiment [2]) was greater than 1 µM throughout. In addition, the half-inhibitory concentration (IC50) (at BRAF V600E; in experiment [1]) was 0.0001 to 1 µM each time.
As to `CCCN(C)S(=O)(=O)Nc1cccc(C(=O)c2c[nH]c3ncnc(C)c23)c1F` [P-2086, 5-[2-fluoro-3-[[methyl(propyl)sulfamoyl]amino]benzoyl]-4-methyl-7H-pyrrolo[2,3-d]pyrimidine], the half-maximal effective concentration (EC50) (in the experiment on B9 (HRAS Q61L) cell line (numeric bounds); in experiment [2]) was greater than 10 µM in each case. For the same molecule, the IC50 (against BRAF V600E; in experiment [1]) was 0.0001 to 1 µM throughout.
